Patent EP0427925A2, “Use of prophenytoin for preparing pharmaceutical preparations for treating stroke and cerebral ischemia” (WARNER-LAMBERT COMPANY, priority 1989, dated 1991)
Where a name gives a salt, the structure may show the parent alone.

Assays:
[1] = Compatibility with standard intravenous solutions (precipitate formation); assay type: physicochemical; conditions: solutions and mixes with standard intravenous solutions (dextrose, saline, Ringers lactate)
Description: Supplementary active ingredients can also be incorporated into the formulations of formula I and its salts. The formula I and its salts, and particularly fosphenytoin sodium, can be and is formulated so as to be compatible with the commonly used intravenous fluids including solutions based on dextrose, […] or 0.9% saline as well as more complicated solutions including/such as Ringers lactate, and the like.

[2] = test system: middle cerebral artery occlusion (MCAO) model; assay: Middle cerebral artery occlusion (MCAO) model, infarct area and volume by TTC stain; assay type: in vivo, male F-344 rats; conditions: 37 mg/kg IV 30 minutes and 24 hours after occlusion
Description: The model depends on a surgical procedure which is a modification of that originally proposed by A. Tamura, et al, "Focal Cerebral Ischemia in the Rat: Description of Technique and Early Neuropathological Consequences Following Middle Cerebral Artery Occlusion," J. Cerb. Blood Flow Metab. Vol. 1, pp. 53-60 and is similar to the methods described by Duverger and MacKenzie, "The Quantification of Cerebral Infarction Following Local Ischemia in the Rat: Influence of Strain, Arterial Pressure, Blood Glucose Concentration and Age", J. Cerb. Blood Flow Metab., Vol. 8, pp. 449-461 and S. Brint, et al, "Focal Brain Ischemia in the Rat: Methods for Reproducible Neocortical Infarction Using Tandem Occlusion of the Distal Middle Cerebral and Ipsilateral Common Carotid Arteries", J. Cereb. Blood Flow Metab., Vol. 8, pp. 474-485.
Generally, male F-344 rats weighing 300-350 g are anesthetized in 2% halothane in room air. The right femoral vein is cannulated and the tubing led subcutaneously to an exit behind the neck to allow intravenous (IV) drug injection. The left common carotid is permanently occluded with a 6-0 silk ligature. The left middle cerebral artery (MCA) is exposed through a 2-mm burr hole drilled 1-2 mm rostral to the fusion of the zygomatic arch with the squamosal bone. The dura is cut, the MCA lifted off the surface of the brain, electrocauterized, and cut. The wound margins are sutured shut and the anesthesia stopped.
The stable pharmaceutical composition is used for the assay or a solution for the assay may be prepared as follows: The hydrated fosphenytoin sodium (2.25 H₂O equivalent per mole) is dissolved in saline (pH = 7) at a concentration of 37 mg/mL and administered at 1 mL/kg. This dose of 37 mg/kg is equal to 30 mg/kg of the free base of fosphenytoin sodium. In vivo fosphenytoin sodium or the phenytoin prodrug undergoes a phosphate ester cleavage followed by a dehydroxymethylation to yield the free base of phenytoin. The dose administered is equivalent to 21 mg/kg of the free base of phenytoin.
This solution is then administered intravenously (IV) 30 minutes and 24 hours after occlusion to groups of 12 animals each. Forty-eight hours following occlusion rats are anesthetized with ketamine (150 mg/kg, IP), decapitated, the brains rapidly removed, and placed on ice. With the aid of a brain mold (Activational Systems), the brain is sliced into four 2-mm sections: one section anterior (ANT) to the MCA and three sections posterior (ANT-MED, POST-MED, and POST) to the MCA. The sections are then placed for 30 minutes in a 2% solution of 2,3,5 triphenyltetrazolium chloride (TTC) in saline. The brains are stored in 10% neutral buffered […] for analysis.
The brains are coded and the analysis is performed blinded. The area of infarction in each section is outlined with the aid of a morphometric analysis program (Bioquant IV, R & M Biometrics). The TTC stain is converted into a red marker in live mitochondria, while the infarcted area remains white. The total volume of infarction is calculated from the areas of the four sections assuming three truncated cones. The mean area for each section and the mean total volume are calculated; vehicle and drug treatment are compared using the Student's t-test.

[3] = section posterior to the MCA, forty-eight hours following occlusion, mean ± standard deviation, N = 12

Which “precipitate formation in standard intravenous solutions” value [1] does the source give for `O=C1NC(c2ccccc2)(c2ccccc2)C(=O)N1COP(=O)(O)O` [Disodium Salt of Prophenytoin, 3-(hydroxymethyl)-5,5-diphenylhydantoin disodium phosphate ester] here?
Its value is “do not form precipitates”.

And the “% Change, POST” value ([2]; area of infarction vs Vehicle, Probability 0.006)?
Its value is -71.56%.

And the “% Change, POS-MED” value ([2]; area of infarction vs Vehicle, Probability 0.008)?
Its value is -57.10%.

And the “% Change, ANT-MED” value ([2]; area of infarction vs Vehicle, Probability 0.049)?
Its value is -22.82%.

And the “% Change, ANT” value ([2]; area of infarction vs Vehicle, Probability 0.160)?
Its value is -18.58%.

And the “TOTAL VOLUME of infarction” value ([2]; calculated from the areas of the four sections, forty-eight hours following occlusion, mean ± standard deviation, N = 12)?
Its value is 43.21 ±21.85.

What about the “area of infarction, ANT” value ([2]; section anterior to the MCA, forty-eight hours following occlusion, mean ± standard deviation, N = 12) of the same compound?
The value was 9.03 ± 2.91.

And the “area of infarction, ANT-MED” value [2, 3]?
The value was 11.23 ± 2.95.

And the “area of infarction, POS-MED” value [2, 3]?
Its value is 5.23 ± 5.44.

What about the “area of infarction, POST” value [2, 3] of the same compound?
The value was 2.97 ± 4.39.

What about the “% Change, TOTAL VOLUME” value ([2]; total volume of infarction vs Vehicle, Probability 0.010) of the same compound?
Its value is -42.07%.
